Data set [1] concerns Transformed lymphocytes derived from involved skin of IL-7 transgenic mice (lymphoproliferative disease similar to human cutaneous T-cell lymphoma). Description: Topical treatment of mice with lymphoproliferative skin disease (CTCL model), histopathologic examination. Type of data set: in vivo. The following applies: daily, fourteen days of therapy, versus vehicle control, FIG. 14. An excerpt: FIG. 14. Interleukin-7 is a growth factor for T-cell development, in particular the gamma-delta subset. Transgenic mice overexpressing IL-7 in keratinocytes were developed by the laboratories of Thomas Kupper and Benjamin Rich, using a tissue-specific keratin-14 promoter element. These mice have been reported to develop a characteristic lymphoproliferative skin disease grossly and histologically similar to human cutaneous T-cell lymphoma (CTCL). Transformed lymphocytes derived from involved skin were passaged ex vivo and injected into syngeneic (non-transgenic) mice. After fourteen days, these mice develop a homogeneous lymphoproliferative disease. Two cohorts of five mice were included in a prospective study of topical, daily suberoyl hydroxamic acid phenyl ester (SAHP, also known as SHAPE) versus vehicle control. After fourteen days of therapy, mice were sacrificed and the treated region was dissected for histopathologic examination.

Data set [2] concerns acetylated histones (AcH3K18). In words: Pharmacodynamic effect by immunohistochemical staining for acetylated histones. Type of data set: in vivo. The note with it: SAHP-treated mice compared to vehicle treated controls; FIG. 15.
Data set [3] can be described thus: Degradation of SAHP in serum. Type of data set: in vitro ADME. As for the experimental part:
In less than 15 minutes, SAHP is completely degraded.
In less than 2 minutes, SAHP is completely degraded into phenol and the corresponding carboxylic acid.

Molecules are shown by their SMILES.

For `O=C(CCCCCCC(=O)Oc1ccccc1)NO` [SAHP, suberoyl hydroxamic acid phenyl ester], the “lymphomatous infiltration within the treated window (hematoxylin-eosin staining)” value in data set [1] is on record as “marked reduction in lymphomatous infiltration”. The “AcH3K18 staining (histone hyperacetylation) in treated skin” value in data set [2] is listed as “hyperacetylated histone staining at the margin of compound treatment, with absent nuclear staining in the region of drug response”. The “time until SAHP is completely degraded in serum” value in data set [3] (FIG. 6) is on record as “less than 15 minutes”. Besides, the “time until SAHP is completely degraded into phenol and the corresponding carboxylic acid” value in data set [3] (more detailed study, FIG. 7) is reported as “less than 2 minutes”.

These data come from patent US10172821B2, “Histone deacetylase inhibitors” (President & Fellows of Harvard College, priority 2006, dated 2019).
